Reference: patent US4067997A, “Synergistic microbecidal composition and method” (priority 1976, dated 1978)

Legend:
Assay in all cases: MIC, broth dilution (Examples I/II)
[1] = system: S. epidermidis; assay type: cell-based; conditions: for MIC: Table 8, Staph. epider., > = no inhibition, max. tested
Protocol: (§1) In order to establish comparative bactericidal and fungicidal results with homologous fatty acids, a series of experiments was performed with thirty straight-chain fatty acids and derivatives thereof. Eight different gram-negative and twelve different gram-positive organisms, representing a very broad spectrum of organisms, were used in these experiments including the fungus Candida (a yeast). Additionally, fatty acids were chosen to show the effects of saturation versus unsaturation, in the fatty acid claim. Standard solutions of the fatty acids and their derivatives were prepared by first dissolving the weighed compounds in 1 to 2 ml of 95% ethanol and immediately pouring this solution into 200 ml of Tripticase Soy Broth. These lipid compounds which are insoluble in water and broth precipitated into very small crystals or droplets. The tubes containing the suspension were warmed to approximately 70° C and were then placed in an ultrasonic tank for further solubilization of the lipid derivatives.
(§2) Standard solutions (or suspensions) at 1,000 μg/ml were twofold serially diluted with additional broth to a concentration of 125 μg/ml. A 4-ml amount of each dilution was then quickly, and with constant agitation, dispensed into appropriately labeled screw-capped glass tubes (16 by 125 mm). The tubes were sterilized with steam at 15 psi for 15 minutes. After sterilization, all tubes were cooled and incubated overnight at 35° C to insure sterility.
(§3) All compounds were compared on a molar (micromoles/milliliter) rather than on a mass basis. In the following lists of organisms used, those followed by a parenthetical number are registered with the American Type Culture Collection (ATCC); the remainder were isolates from Providence Hospital or Northland Laboratory.
(§4) One drop (0.04 ± 0.01 ml) of an 18-hr broth culture containing 10^7 and 10^9 organisms/ml was added to each dilution of the test compound, as well as to a tube of plain broth which served as the positive control. After inoculation, the contents of each tube were well mixed, and the tubes were incubated at 35° C in a 5% carbon dioxide + […] atmosphere.
(§5) The MIC is defined as the lowest concentration of compound at which no […] evidence of growth was observed when turbidity of the inoculated broth dilutions was compared with control tubes. […] Only a one-tube difference between the bactericidal and bacteriostatic concentrations was normally observed.
(§6) Standard solutions (1000 μg/ml) of three fatty acids and polyglycerol esters thereof were prepared as described in Example I. Also sucrose esters were prepared by transferring the weighed compounds (0.2 gm. dissolved in 1 ml absolute methanol) into 200 ml of sterile Trypticase Soy Broth (TSB). These standard solutions (1000 μg/ml) were twofold serially diluted with additional sterile broth to a concentration of 125 μg/ml. A 3.8 aliquot of each dilution was asceptically delivered into sterile screw-capped culture tubes. All tubes were incubated overnight at 36° C to insure sterility. The microorganisms used in this example were the same as those used in Example I.
(§7) The inoculum, 0.05 ml of an 13-24 hour TSB culture (approximately 10^9 organisms/ml) was asceptically delivered into all dilutions of the compounds, mixed well, and incubated at 36° C. A tube of inoculated broth without the compound served as a positive control and an uninoculated set of dilutions incubated along with the test dilutions, served as a negative control.
(§8) In those cases in which the test compound itself caused turbidity, an aliquot (0.015 ml) of the mixed broth was inoculated onto an agar plate and incubated at 36° C for examination, as described in Example I. The control procedure of Example I was also repeated. The lauric, capric, and oleic acids were used as internal controls and for comparison to Example I. The minimal inhibitory concentrations (μmole/ml) for the compounds studied are given in Tables 7 and 8.

[2] = system: Streptococcus Group A; assay type: cell-based, beta-hemolytic streptococci Group A; conditions: Table 8, Strep. Grp. A; for MIC (second value, in parentheses): parentheses not explained
Protocol: as §1, §2, §3, §4, §5, §6, §7, §8

[3] = system: Micrococci; assay type: cell-based, Micrococcus sp.; conditions: Table 8, Micrococci
Protocol: as §1, §2, §3, §4, §5, §6, §7, §8

[4] = system: Sarcina; assay type: cell-based, Sarcina lutea (9431); conditions: for MIC: Table 8, Sarcina, > = no inhibition, max. tested
Protocol: as §1, §2, §3, §4, §5, §6, §7, §8

[5] = system: Pneumococci; assay type: cell-based, pneumococcus (63001); conditions: Table 8, Pneumococci
Protocol: as §1, §2, §3, §4, §5, §6, §7, §8

[6] = system: Nocardia asteroides; assay type: cell-based, Nocardia asteroids (3308); conditions: Table 8, Nocardia asteroides; for MIC (second value, in parentheses): parentheses not explained
Protocol: as §1, §2, §3, §4, §5, §6, §7, §8

[7] = system: Corynebacteria; assay type: cell-based, Corynebacterium sp. (10700); conditions: Table 8, Corynebacteria; for MIC (second value, in parentheses): parentheses not explained
Protocol: as §1, §2, §3, §4, §5, §6, §7, §8

| Substance | MIC [1] [µM] | MIC [2] [µM] | MIC [3] [µM] | MIC [4] [µM] | MIC [5] [µM] | MIC [6] [µM] | MIC [7] [µM] | MIC (second value, in parentheses) [2] [µM] | MIC (second value, in parentheses) [6] [µM] | MIC (second value, in parentheses) [7] [µM] | Inhibition in words ([1]; S. epidermis) | Inhibition in words ([4]; Sarcina) |
| --- | --- | --- | --- | --- | --- | --- | --- | --- | --- | --- | --- | --- |
| Sucrose caprate | > 2000 | 60 | 1000 | > 2000 | 60 | 250 | 250 | – | – | – | – | – |
| Sucrose elaidate | > 1640 | 200 | 820 | > 1640 | 200 | 200 | 1640 | – | – | – | – | – |
| Sucrose laurate | > 1900 | 30 | 1900 | > 1900 | 120 | 470 | 470 | 120 | 1900 | 230 | – | – |
| Sucrose linoleate | > 1660 | 410 | 820 | > 1660 | 50 | 410 | > 1660 | 820 | 1660 | 1660 | – | – |
| Sucrose myristate | > 1840 | 50 | 230 | > 1840 | 230 | 230 | 110 | 110 | 110 | 110 | – | – |
| Sucrose oleate | > 1640 | > 1640 | 210 | > 1640 | 50 | 410 | > 1640 | 410 | 210 | > 1640 | – | – |
| Sucrose palmitate | 860 | 100 | 260 | 430 | 50 | 430 | 430 | 200 | > 1720 | 260 | only ester which inhibits S. epidermis | only ester which inhibits S. epidermis and Sarcina |
